Some results are limits rather than exact numbers.

The target of this assay is T1, human PDGFR-β (Homo sapiens, UniProt P09619).
T1 construct: made in house
T1 sequence (P09619 33-1106): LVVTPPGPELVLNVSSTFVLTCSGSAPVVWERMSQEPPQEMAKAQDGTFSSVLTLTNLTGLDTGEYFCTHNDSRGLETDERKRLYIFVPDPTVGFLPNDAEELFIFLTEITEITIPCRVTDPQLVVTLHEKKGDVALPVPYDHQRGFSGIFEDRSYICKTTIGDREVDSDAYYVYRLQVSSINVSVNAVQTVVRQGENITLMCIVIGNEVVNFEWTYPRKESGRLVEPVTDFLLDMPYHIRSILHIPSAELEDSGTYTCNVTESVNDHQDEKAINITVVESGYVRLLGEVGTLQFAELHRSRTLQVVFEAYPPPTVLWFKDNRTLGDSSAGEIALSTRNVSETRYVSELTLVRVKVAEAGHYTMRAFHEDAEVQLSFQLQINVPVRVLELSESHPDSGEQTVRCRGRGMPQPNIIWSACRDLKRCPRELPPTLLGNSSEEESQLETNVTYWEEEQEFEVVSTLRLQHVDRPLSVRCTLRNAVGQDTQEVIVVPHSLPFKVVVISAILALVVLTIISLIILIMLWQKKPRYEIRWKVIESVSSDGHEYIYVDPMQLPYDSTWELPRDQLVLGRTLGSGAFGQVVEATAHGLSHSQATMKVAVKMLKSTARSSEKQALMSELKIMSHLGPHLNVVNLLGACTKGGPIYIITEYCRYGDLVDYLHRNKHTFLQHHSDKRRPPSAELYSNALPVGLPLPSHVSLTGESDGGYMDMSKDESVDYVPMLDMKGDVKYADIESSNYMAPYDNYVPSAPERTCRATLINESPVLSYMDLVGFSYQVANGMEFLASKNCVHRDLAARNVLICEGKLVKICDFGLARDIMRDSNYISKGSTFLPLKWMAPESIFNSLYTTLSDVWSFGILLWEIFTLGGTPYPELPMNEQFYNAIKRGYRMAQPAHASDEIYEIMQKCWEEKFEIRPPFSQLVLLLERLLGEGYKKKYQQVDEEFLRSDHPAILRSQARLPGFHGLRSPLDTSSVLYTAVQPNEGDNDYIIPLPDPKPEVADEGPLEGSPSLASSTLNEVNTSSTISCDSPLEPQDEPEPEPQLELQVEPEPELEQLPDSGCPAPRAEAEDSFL
Briefly: phage-display-based competitive binding assay for PDGFR-β. The following applies: T7 phage displaying human PDGFR-β; Kd class; read-out: Binding Assay:PDGFRB (DKIN). As to the method: The term “ND” represents non-determined values.
Kd values for the interactions between PDGFR-β and candidate small molecule ligands were measured by a phage-display-based competitive binding assay that is described in detail in U.S. Ser. No. 10/406,797 filed 2 Apr. 2003 and incorporated herein by reference. Briefly, T7 phage displaying human PDGFR-β were incubated with an affinity matrix coated with known PDGFR-β inhibitor in the presence of various concentrations of the soluble competitor molecules. […] The Kd for the interaction between the soluble competitor molecule and PDGFR-β is equal to the concentration of soluble competitor molecule that causes a 50% reduction in the number of phage recovered in the eluate compared to a control sample lacking soluble competitor. Kd values for the interaction between PDGFR-β and several small molecules are shown in below: […]
For the compound `COc1ccc(CC(=O)Nc2cc(C(C)(C)C)no2)cc1`, the Kd is less than 100 nM.

For `CC(C)(C)c1cc(NC(=O)Cc2ccc(Br)cc2)on1`, the Kd was less than 100 nM.

Take `CC(C)(C)c1cc(NC(=O)Cc2ccc(OCc3ccccc3)cc2)on1`: the Kd is less than 100 nM.

Consider `COc1ccc(SC(=O)Nc2cc(C(C)(C)C)on2)cc1`, for which the Kd was in the range of 1000 to 10000 nM.

`COc1cccc2cc([C@H](C)C(=O)Nc3cc(C(C)(C)C)on3)ccc12`: the Kd lay in the range of 100 to 1000 nM.

For `CC(C)(C)c1cc(NC(=O)Sc2ccc(Cl)cc2)no1`, the Kd is greater than 10000 nM.

For the compound `CC(C)(C)c1cc(NC(=O)Cc2ccc(F)cc2)on1`, the Kd was in the range of 100 to 1000 nM.

As to `CC(C)Cc1ccc(C(C)C(=O)Nc2ccnn2-c2ccccc2)cc1` (stereo not shown), the Kd is greater than 10000 nM.

In the case of `CC(C)(C)c1cc(NC(=O)Cc2ccc(Cl)cc2)on1`, the Kd was 100 to 1000 nM.

In the case of `CC(C)(C)c1cc(NC(=O)Cc2ccc(O)cc2)no1`, the Kd is greater than 10000 nM.

Turning to `Cc1csc(NC(=O)Cc2ccc(OCc3ccccc3)cc2)n1`, the Kd is greater than 10000 nM.

Take `Cc1cc(C)n(C(=O)Nc2ccc(Cl)cc2)n1`: the Kd is greater than 10000 nM.

For `Cc1cnc(NC(=O)Cc2ccc(OCc3ccccc3)cc2)s1`, the Kd was greater than 10000 nM.

Turning to `Cc1nn(C)c(Cl)c1C(=O)Nc1ccc(CC(=O)Nc2cc(C(C)(C)C)on2)cc1`, the Kd was in the range of 100 to 1000 nM.

As for `O=C(Cc1ccc(OCc2ccccc2)cc1)Nc1nc(-c2ccc(Cl)cc2)cs1`, the Kd was greater than 10000 nM.

For `CSc1ncc(Br)c(C(=O)Nc2ccc(CC(=O)Nc3cc(C(C)(C)C)on3)cc2)n1`, the Kd is less than 100 nM.

Take `O=C(Cc1ccc(OCc2ccccc2)cc1)Nc1nc2ccccc2s1`: the Kd is greater than 10000 nM.

Consider `CC(C)(C)c1cc(NC(=O)Cc2ccc(NC(=O)c3ccc4cnccc4n3)cc2)no1`, for which the Kd was less than 100 nM.

Turning to `COc1cccc2sc(NC(=O)Cc3ccc(OCc4ccccc4)cc3)nc12`, the Kd is greater than 10000 nM.

Take `Cn1cc(C(=O)Nc2ccc(CC(=O)Nc3cc(C(C)(C)C)on3)cc2)c2ccccc21`: the Kd is less than 100 nM.

With `CC(C)(C)c1cc(NC(=O)Cc2ccc(NC(=O)c3cccc4cccnc34)cc2)no1`, the Kd was 1000 to 10000 nM.

Regarding `CC(C)(C)c1cc(NC(=O)Cc2ccc(NC(=O)c3cnc4ccccc4c3)cc2)no1`, the Kd was less than 100 nM.

For the origin of these results see patent publication US20050171172A1, “Amide derivatives as PDGFR modulators” (Ambit Biosciences Corporation, priority 2003, published 2005).
